# Laboratory results: article PMC13144739, “Global analysis of cancer cell responses to USP9X inhibition” (The EMBO Journal, 2026)
# Columns and labels:
# USP9X/USP24 chimera Δβ = target: T1, USP9X/USP24 chimera Δβ (Homo sapiens, UniProt Q93008, A1766S/D1761E/DEL1924-1943/K1759R/L1762V/Y1757F); assay: Ub-Rho cleavage assay, USP9X/USP24 chimera Δβ; format: biochemical
# T1 construct: His/SUMO (pOPIN-S vector) (N, cleaved yes); made in house; host or cells: E. coli BL21
# Excerpt: An expression construct for the USP9X catalytic domain (aa 1551–1970, […]: Q93008-1), was codon optimised for bacterial expression, synthesised in gBlock format (Integrated DNA Technologies) and cloned into the pOPIN-S vector (Berrow et al, [2007]), which was digested with KpnI and HindIII using In-Fusion™ HD cloning (Takara Clontech). […] For the USP9X Δβ catalytic domain a deletion construct ΔE1924-K1943 and for USP9X/USP24 chimera, a construct with USP9X Y1757-A1766 replaced with the USP24 (NCBI Reference Sequence: NP_056121) aa motif […] was used. All constructs were confirmed by Sanger sequencing (AGRF).
# The reaction was stopped through the addition of 10 mM citric acid. The assay was performed in 384-well format with a total reaction volume of 16 µL. Data was collected using the ClarioSTAR plate reader (BMG Labtech) at an emission of 535 nm. […] IC50 values presented in our study are the mean of three independent biological repeats unless indicated otherwise.
# [1] = test system: human dermal fibroblasts (HDF); assay: IncuCyte live-cell imaging cell death, HDF; format: cell-based; details: 50 µM (Appendix Fig. S4E)
# Method: (§1) Cells were seeded at varying densities (1000–8000 cells per well) after initial optimisation in a 96-well tissue culture-treated plate (Thermo Fisher Scientific). Cells were incubated o/n, and the next day, inhibitors and controls diluted in cell media were added to the cells to a final volume of 200 μL per well. Cell death was measured using PI (Sigma-Aldrich). Cells were imaged with four images per well every 2 h for up to 96 h using the IncuCyte live-cell analysis system (S3, Sartorius). Cell proliferation data were analysed using Microsoft Excel by normalising confluence to control conditions. For cell killing readouts, the number of PI-positive cells was normalised to the control conditions for each timepoint.
# HMEC-1 cells = assay: Lattice light sheet imaging of mitosis, HMEC-1; format: cell-based, human; details: 15 µM, imaged 24-48 h
# Method: MDA-MB-231, MiaPaca2, HMEC-1, SK-MEL-2 and UO-31 cells were seeded at 2–15 × 10^4 cells/mL in 8-well glass µ-slides (ibidi). […] SPY650-Tubulin, SPY555-DNA (both Spirochrome, Inc.), and Annexin V FITC (Sigma-Aldrich) were added at a final concentration of 1 in 1000. Cells were left to grow for 24 h before time-lapse live-cell data were acquired using a Lattice Light Sheet 7 (Zeiss). […] Aberration correction was set to a value of 170 to minimise aberrations as determined by imaging the Point Spread Function using 100 nm fluorescent microspheres. Data were collected with a frame time of 10 ms and a z step of 0.4 μm with 834 frames per 290 μm by 290 μm. Individual regions were imaged in parallel across six wells of the eight-well chamber slide. Data are presented as Maximum Intensity Projections (MIPs), and these MIPs were used for all downstream analysis. Tile regions were imaged for 24 h with 10 min intervals at 37 °C, 5% CO2. Analysis was performed using the MIPs of the different full fields of cells over the 24–48 h time period. Mitosis and mitosis arrest were classified through a combination of automated image analysis and manual validation. […] Small erroneous detected spots were further removed through a manually adjusted size filter. […] The mean intensity of all tracks was then measured to determine mitosis and mitosis arrest. […]
# MDA-MB-468 cells = assay: Colony formation assay, MDA-MB-468; format: cell-based, human; details: 10 µM, 7–12 days
# Method: Cells were seeded at low density (200–4000 cells per well) after initial optimisation in a six-well tissue culture-treated plate (Falcon). Twenty-four hours post seeding, media was replaced, and the inhibitor was added. Cells were left to grow into colonies between 7 and 12 days, depending on the cell line. For analysis, the media was removed, and the cells were fixed with 10% (w/v) formalin for 10 min. Colonies were stained with crystal violet (Sigma-Aldrich, 0.5% [w/v] in 20% [v/v] MeOH) for 10 min and washed thrice with distilled H2O. Plates were imaged using the ChemiDoc imaging system (Bio-Rad) and analysed using the ImageJ ColonyArea plugin as described previously (Guzmán et al, [2014]).
# ACHN cells = assay: IncuCyte live-cell imaging cell death, ACHN; format: cell-based, human; details: 10 µM
# Method: as §1
# SK-MEL-2 cells = assay: NCI-60 cancer cell panel, SK-MEL-2; format: cell-based, human; details: 10 µM, 3 days
# Method: Inhibitors were tested at 10 µM. Data shown is the mean of two technical replicates and is shown relative to the no-drug control, and relative to the time zero number of cells.
# T1 sequence (Q93008 with tags, fused parts or gaps Y1757F/K1759R/D1761E/L1762V/A1766S/DEL1924-1943): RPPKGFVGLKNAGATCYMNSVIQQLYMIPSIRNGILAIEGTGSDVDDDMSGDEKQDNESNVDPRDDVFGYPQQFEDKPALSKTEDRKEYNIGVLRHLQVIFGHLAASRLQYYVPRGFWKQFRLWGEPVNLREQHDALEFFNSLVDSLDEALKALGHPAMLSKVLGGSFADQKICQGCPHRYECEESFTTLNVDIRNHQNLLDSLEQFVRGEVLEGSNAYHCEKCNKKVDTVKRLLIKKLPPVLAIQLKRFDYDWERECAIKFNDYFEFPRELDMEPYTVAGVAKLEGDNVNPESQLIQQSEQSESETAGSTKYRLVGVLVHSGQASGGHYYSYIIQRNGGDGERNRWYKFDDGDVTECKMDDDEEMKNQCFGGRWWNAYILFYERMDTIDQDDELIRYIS
compound,measurement,setting,value
Cc1[nH]c2ccc(C(=O)N3CCN(S(=O)(=O)c4ccc5c(c4)OCCO5)CC3)cc2c1C [WEHI-092],activity of USP9X/USP24 chimera Δβ in presence of compound,USP9X/USP24 chimera Δβ,remained fully active at concentrations up to 10 µM
same,toxicity to HDFs,[1],non-lethal and non-toxic
same,"cell division phenotype, HMEC-1",HMEC-1 cells,proceeded through mitosis normally
same,"clonogenic potential, MDA-MB-468",MDA-MB-468 cells,strong decrease in proliferative capacity
same,response of ACHN cells (cell death),ACHN cells,limited response
same,"cell growth, SK-MEL-2",SK-MEL-2 cells,stalling cell growth completely
